Patent US5776673A, “Treatment and detection of tuberculosis, leprosy, and related diseases” (priority 1995, dated 1998)

Experiments:
T7 DNA polymerase [1] = molecular target: T1, T7 DNA polymerase (Escherichia phage T7, UniProt P00581, DEL118-145); type: biochemical, Bacteriophage T7; conditions: for percentage of counts in the first three dideoxy-terminated fragments to the total number of counts in the primers capable of being extended: 100 μM 4dNTPs and 100 μM of one ddNTP; for M, calculated exponential decay function: 1:1 dNTP:ddNTP, fit Y=e^M*X; for Incorporation Rate Ratios dN/ddN: absolute ratios from 1:1 dNTP:ddNTP test; for D, discrimination factor, ratio of use of dNTP to comparable ddNTP: equal concentrations, D=Y/(1-Y) at X=1
Procedure: (§1) Reaction conditions are used that are optimum for the DNA polymerase being tested with regard to buffer, pH, salts, and temperature of the reaction. A concentration of DNA polymerase is chosen whereby most of the primers are extended in a 10 min reaction and are terminated by the incorporation of a dideoxynucleotide. The reaction mixture contains 100 μM 4dNTPs and 100 μM of one of the four ddNTPs.
(§2) We used this test to compare the ability of six DNA polymerases to incorporate each of the four ddNMPs.
(§3) The reaction mixtures also contained 10 ng of yeast inorganic pyrophosphatase to inhibit pyrophosphorolysis that could otherwise increase the apparent discrimination by the DNA polymerase (Tabor and Richardson 265 J. Biol. Chem. 8322, 1990). The reactions were initiated by the addition of 2 μl of each DNA polymerase, diluted in 20 mM Tris.HCl, pH 7.5, 10 mM 2-mercaptoethanol and 0.05% bovine serum albumin to a concentration of approximately 0.025 units/μl. […] The reactions were terminated by the addition of 10 μl 90% formamide, 20 mM EDTA, 0.05% bromphenol blue. Each sample was heated at 90° C. for 2 min immediately prior to loading 6 μl of each sample onto a gel consisting of 8% polyacrylamide, 0.4% N,N'-methylenebisacrylamide, 7M urea in 100 mM Tris borate, pH 8.3, 1 mM EDTA. Electrophoresis was at 2000 Volts for 90 min (until the bromphenol blue had just run off the bottom of the gel). After electrophoresis, the gel was dried under vacuum, and autoradiographed. After autoradiography, the distribution of radioactively labeled fragments was determined by Phosphorimager analysis (Molecular Dynamics). Alternatively, the relative intensities of dideoxy-terminated bands can be determined by scanning the autoradiograph using an instrument such as the SciScan 5000 imaging densitometer (United States Biochemical Corp).
(§4) The distribution of radioactivity in the fragments was quantitated by Phosphoimager analysis (Molecular Dynamics). The total amount of labeled primers in each lane was determined by running three control reactions in which no DNA polymerase was present, and the radioactivity in each of the corresponding radioactive bands on the gel at the position of the unextended primer was determined. […] This value is defined as the total number of counts in primers that are capable of being extended by a DNA polymerase.
(§5) The values are presented in the Table below as the percentage of counts in the first three dideoxy-terminated fragments to the total number of counts in the primers capable of being extended by a DNA polymerase.
(§6) As a further test of the efficiency of each DNA polymerase to incorporate dideoxynucleotides, the number of counts in each fragment with a significant signal was determined for each reaction, and the data were plotted as a function of the fragment number using the Macintosh program Kaleidograph Version 3.0 (Synergy Software). The resulting plots were fit to an exponential decay curve using the Kaleidograph library routine for this function. The decay curve is given by the equation: […]

Taq DNA polymerase F667Y [2] = molecular target: T2, Taq DNA polymerase F667Y (Thermus aquaticus, UniProt P19821, F667Y); type: biochemical; conditions: for M, calculated exponential decay function: 1:1 dNTP:ddNTP, fit Y=e^M*X; for Incorporation Rate Ratios dN/ddN: absolute ratios from 1:1 dNTP:ddNTP test; for D, discrimination factor, ratio of use of dNTP to comparable ddNTP: equal concentrations, D=Y/(1-Y) at X=1
Procedure: as §1, §2, §3, §4, §5, §6

T7 DNA polymerase Y526F [3] = molecular target: T3, T7 DNA polymerase Y526F (Escherichia phage T7, UniProt P00581, DEL118-145/Y526F); conditions: 10 μM 4 dNTPs, ddNTP 100 to 2,000 μM; factor versus T7 DNA polymerase multiplied by its absolute ratio
E. coli DNA polymerase I [4] = molecular target: T4, E. coli DNA polymerase I (Escherichia coli, UniProt P00582); conditions: 10 μM 4 dNTPs, ddNTP 100 to 2,000 μM; factor versus F762Y multiplied by its absolute ratio
Taq DNA polymerase [5] = molecular target: T5, Taq DNA polymerase (Thermus aquaticus, UniProt P19821); conditions: 10 μM 4 dNTPs, ddNTP 100 to 2,000 μM; factor versus F667Y multiplied by its absolute ratio
T7 DNA polymerase [6] = molecular target: T1, T7 DNA polymerase; assay: Competition of dATP and ddATP at a single site in synthetic Primer-Template A (Example 4); type: biochemical, Bacteriophage T7; conditions: 10 μM dATP; read-out: [ddATP] for 50% inhibition
Procedure: (§7) Example 4. Determination of the efficiency of incorporation of dideoxynucleotides by measuring the incorporation of [α-^32 P]dAMP into synthetic primer-template complexes
(§8) In this example the competition between a dNTP and a ddNTP is assayed for use at a single site in a synthetic primer-template. This assay differs from the others in that it limits the comparison of the use of the two substrates to a single site, avoiding the complication of sequence-specific variability in discrimination. […]
(§9) Each reaction mixture contains 25 pmoles each of primer and template. […] The mixtures are incubated at 37° C. for 1 min (70° C. for thermophilic DNA polymerases), and the reactions are initiated by the addition of 5 μl aliquots (0.01 to 1 unit) of the DNA polymerase being analyzed diluted in 20 mM Tris.HCl, pH 7.5, 10 mM 2-mercaptoethanol and 0.05% bovine serum albumin. […] The disks are then dried under a heat lamp and counted in a scintillation counter in 5 ml of fluor (Opti-Fluor O, Packard). From the amount of radioactivity on each disk, the amount [^32 P]dGMP incorporated was determined. […]
(§10) All reactions are carried out with a constant amount of the DNA polymerase being analyzed; the amount of DNA polymerase should be sufficient to replicate 50% of the total […] residues in the single-stranded region of the template in the 10 min incubation in the presence of 10 μM DATP and the absence of ddATP. […]

T7 DNA polymerase Y526F [7] = molecular target: T3, T7 DNA polymerase Y526F; assay: as above; type: biochemical, Bacteriophage T7; conditions: 10 μM dATP; read-out: [ddATP] for 50% inhibition
Procedure: as §7, §8, §9, §10

Taq DNA polymerase [8] = molecular target: T5, Taq DNA polymerase; assay: as above; type: biochemical; conditions: 10 μM dATP; read-out: [ddATP] for 50% inhibition
Procedure: as §7, §8, §9, §10

Taq DNA polymerase F667Y [9] = molecular target: T2, Taq DNA polymerase F667Y; assay: as above; type: biochemical; conditions: 10 μM dATP; read-out: [ddATP] for 50% inhibition
Procedure: as §7, §8, §9, §10

E. coli DNA polymerase I [10] = molecular target: T4, E. coli DNA polymerase I; assay: as above; type: biochemical; parameters: The large fragment of E. coli DNA polymerase I, commonly called the Klenow fragment; conditions: 10 μM dATP; read-out: [ddATP] for 50% inhibition
Procedure: as §7, §8, §9, §10

| SMILES | percentage of counts in the first three dideoxy-terminated fragments to the total number of counts in the primers capable of being extended (T7 DNA polymerase [1]) | M, calculated exponential decay function (T7 DNA polymerase [1]) | Incorporation Rate Ratios dN/ddN (T7 DNA polymerase [1]) | D, discrimination factor, ratio of use of dNTP to comparable ddNTP (T7 DNA polymerase [1]) | M, calculated exponential decay function (Taq DNA polymerase F667Y [2]) | Incorporation Rate Ratios dN/ddN (Taq DNA polymerase F667Y [2]) | D, discrimination factor, ratio of use of dNTP to comparable ddNTP (Taq DNA polymerase F667Y [2]) | Incorporation Rate Ratios dN/ddN (T7 DNA polymerase Y526F [3]) | Incorporation Rate Ratios dN/ddN (E. coli DNA polymerase I [4]) | Incorporation Rate Ratios dN/ddN (Taq DNA polymerase [5]) | IC50 (T7 DNA polymerase [6]) | IC50 (T7 DNA polymerase Y526F [7]) | IC50 (Taq DNA polymerase [8]) | IC50 (Taq DNA polymerase F667Y [9]) | IC50 (E. coli DNA polymerase I [10]) |
| --- | --- | --- | --- | --- | --- | --- | --- | --- | --- | --- | --- | --- | --- | --- | --- |
| Nc1nc2c(ncn2[C@H]2CC[C@@H](COP(=O)(O)OP(=O)(O)OP(=O)(O)O)O2)c(=O)[nH]1 [ddGTP] | 67% | -0.375 | 3.2 | 2.2 | -1.18 | 0.45 | 0.45 | 6,400 | 140 | 1,400 |  |  |  |  |  |
| Nc1ccn([C@H]2CC[C@@H](COP(=O)(O)OP(=O)(O)OP(=O)(O)O)O2)c(=O)n1 [ddCTP] | 61% | -0.317 | 3.7 | 2.7 | -1.44 | 0.32 | 0.32 | 11,000 | 250 | 2,600 |  |  |  |  |  |
| Cc1cn([C@H]2CC[C@@H](COP(=O)(O)OP(=O)(O)OP(=O)(O)O)O2)c(=O)[nH]c1=O [ddTTP] | 76% | -0.450 | 2.8 | 1.8 | -1.01 | 0.56 | 0.56 | 8,400 | 1,100 | 4,500 |  |  |  |  |  |
| Nc1ncnc2c1ncn2[C@H]1CC[C@@H](COP(=O)(O)OP(=O)(O)OP(=O)(O)O)O1 [ddATP] | 66% | -0.356 | 3.3 | 2.3 | -0.997 | 0.59 | 0.59 | 7,300 | 720 | 4,700 | ~30 µM | > 500 µM | > 500 µM | ~5 µM | > 500 µM |
